Laboratory results taken from patent US9346809B2 (LEO PHARMA A/S, priority 2009, dated 2016).
Read-outs that look alike come from different tables or passages of the source.

Key:
Type in all cases: biochemical
[1] = target: T1, JAK1 (aa 850-1154, catalytic domain, GST-tag) (Homo sapiens, UniProt P23458); test: JAK kinase assay (HTRF, phosphorylation of TK substrate-biotin), JAK1; settings: ATP at Km (7 μM)
T1 construct: JAK1 (aa 850-1154) and TYK2 (aa 871-1187) are expressed with an N-terminally fused GST-tag; GST (N); purchased Carna Biosciences, Inc; host or cells: baculovirus expression system
Method in brief: (§1)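 HTRF KinEASE TK format; 1 μM biotinylated peptide, Km ATP: 7 μM (JAK1, 10 mM MgCl2, 50 nM SEB), 4 μM (JAK2), 2 μM (JAK3), 13 μM (TYK2, 50 nM SEB); 5 mM MgCl2 for the latter three. RT 20-30 min, 0.75% DMSO final. Overnight detection, EC50.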

[2] = target: T2, JAK2 (catalytic domain, His-tag) (Homo sapiens, UniProt O60674); test: JAK kinase assay (HTRF, phosphorylation of TK substrate-biotin), JAK2; settings: ATP at Km (4 μM)
T2 construct: All four purified enzymes contain only the catalytic domain; His (N); purchased Carna Biosciences, Inc; host or cells: baculovirus expression system
Method in brief: as §1

[3] = target: T3, JAK3 (catalytic domain, His-tag) (Homo sapiens, UniProt P52333); test: JAK kinase assay (HTRF, phosphorylation of TK substrate-biotin), JAK3; settings: ATP at Km (2 μM)
T3 construct: All four purified enzymes contain only the catalytic domain; His (N); purchased Carna Biosciences, Inc; host or cells: baculovirus expression system
Method in brief: as §1

[4] = target: T4, TYK2 (aa 871-1187, catalytic domain, GST-tag) (Homo sapiens, UniProt P29597); test: JAK kinase assay (HTRF, phosphorylation of TK substrate-biotin), TYK2; settings: ATP at Km (13 μM)
T4 construct: JAK1 (aa 850-1154) and TYK2 (aa 871-1187) are expressed with an N-terminally fused GST-tag; GST (N); purchased Carna Biosciences, Inc; host or cells: baculovirus expression system
T4 sequence (P29597 871-1187): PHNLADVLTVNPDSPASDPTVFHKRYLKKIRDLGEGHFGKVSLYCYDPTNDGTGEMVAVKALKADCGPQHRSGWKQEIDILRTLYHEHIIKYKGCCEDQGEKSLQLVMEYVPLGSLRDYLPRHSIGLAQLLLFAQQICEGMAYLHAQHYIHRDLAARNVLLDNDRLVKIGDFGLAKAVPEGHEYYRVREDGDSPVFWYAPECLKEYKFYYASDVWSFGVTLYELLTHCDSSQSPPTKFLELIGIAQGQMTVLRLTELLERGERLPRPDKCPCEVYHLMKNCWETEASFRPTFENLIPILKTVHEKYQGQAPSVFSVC
Method in brief: as §1

[5] = HTRF assay, read-out: JAK1 kinase inhibitory activity (EC50 indicator)
[6] = HTRF assay, read-out: JAK2 kinase inhibitory activity (EC50 indicator)
[7] = HTRF assay, read-out: JAK3 kinase inhibitory activity (EC50 indicator)
[8] = HTRF assay, read-out: TYK2 kinase inhibitory activity (EC50 indicator)
[9] = read-out: JAK1 kinase inhibitory activity (EC50 indicator)
[10] = read-out: JAK2 kinase inhibitory activity (EC50 indicator)
[11] = read-out: JAK3 kinase inhibitory activity (EC50 indicator)
[12] = read-out: TYK2 kinase inhibitory activity (EC50 indicator)

T3 sequence (P52333 822-1111 limits assumed): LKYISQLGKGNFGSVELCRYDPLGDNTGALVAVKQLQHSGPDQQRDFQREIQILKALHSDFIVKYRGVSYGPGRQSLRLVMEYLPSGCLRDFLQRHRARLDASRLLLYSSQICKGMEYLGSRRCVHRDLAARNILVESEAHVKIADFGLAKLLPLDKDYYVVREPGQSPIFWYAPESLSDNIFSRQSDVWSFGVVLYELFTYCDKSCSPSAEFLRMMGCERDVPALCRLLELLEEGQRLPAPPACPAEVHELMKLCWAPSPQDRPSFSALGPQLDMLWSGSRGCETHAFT
T1 sequence (P23458 850-1154): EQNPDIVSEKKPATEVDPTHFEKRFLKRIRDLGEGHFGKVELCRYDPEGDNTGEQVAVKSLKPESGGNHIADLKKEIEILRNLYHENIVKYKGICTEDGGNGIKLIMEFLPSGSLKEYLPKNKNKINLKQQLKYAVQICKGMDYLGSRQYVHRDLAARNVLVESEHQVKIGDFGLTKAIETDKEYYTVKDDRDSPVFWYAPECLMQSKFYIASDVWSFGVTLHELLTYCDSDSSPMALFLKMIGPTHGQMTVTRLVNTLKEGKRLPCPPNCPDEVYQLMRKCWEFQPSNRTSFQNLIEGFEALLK
T2 sequence (O60674 849-1124 limits assumed): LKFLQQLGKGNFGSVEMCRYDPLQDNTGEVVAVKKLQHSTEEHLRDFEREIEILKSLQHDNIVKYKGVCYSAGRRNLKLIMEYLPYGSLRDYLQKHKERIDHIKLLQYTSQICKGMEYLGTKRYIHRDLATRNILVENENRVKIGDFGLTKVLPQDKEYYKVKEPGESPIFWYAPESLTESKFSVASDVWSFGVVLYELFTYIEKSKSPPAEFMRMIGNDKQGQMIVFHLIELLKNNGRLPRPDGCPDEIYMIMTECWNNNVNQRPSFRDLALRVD

Row | EC50 [1, 5] [µM] | EC50 [2, 6] [µM] | EC50 [3, 7] [µM] | EC50 [4, 8] [µM] | EC50 [1, 9] [µM] | EC50 [2, 10] [µM] | EC50 [3, 11] [µM] | EC50 [4, 12] [µM] | SMILES | further results
1 | < 0.1 | < 0.1 | > 0.5 | > 0.5 | – | – | – | – | O=C(c1ccc2c(c1)CCCC2)N1CCN(c2ncnc3[nH]ccc23)CC12CC2 [Example 218, [7-(7H-Pyrrolo[2,3-d]pyrimidin-4-yl)-4,7-diaza-spiro[2.5]oct-4-yl]-(5,6,7,8-tetrahydro-naphthalen-2-yl)-methanone] | –
2 | 0.1 to 0.5 | 0.1 to 0.5 | 0.1 to 0.5 | > 0.5 | – | – | – | – | N#CCc1cccc(CC(=O)N2CCN(c3nc(N)nc4[nH]ccc34)CC23CC3)c1 [Example 306, (3-{2-[7-(2-Amino-7H-pyrrolo[2,3-d]pyrimidin-4-yl)-4,7-diaza-spiro[2.5]oct-4-yl]-2-oxo-ethyl}-phenyl)-acetonitrile] | –
3 | 0.1 to 0.5 | 0.1 to 0.5 | 0.1 to 0.5 | > 0.5 | – | – | – | – | Cc1c[nH]c2ncnc(N3CCN(C(=O)Cc4ccc(F)cc4)C4(CC4)C3)c12 [Example 330, 2-(4-Fluoro-phenyl)-1-[7-(5-methyl-7H-pyrrolo[2,3-d]pyrimidin-4-yl)-4,7-diaza-spiro[2.5]oct-4-yl]-ethanone] | –
4 | < 0.1 | 0.1 to 0.5 | 0.1 to 0.5 | > 0.5 | – | – | – | – | O=C(c1ccc(OC(F)(F)F)cc1)N1[C@@H]2CC[C@@H]1CN(c1ncnc3[nH]ccc13)C2 [Example 251, [3-(7H-Pyrrolo[2,3-d]pyrimidin-4-yl)-3,8-diaza-bicyclo[3.2.1]oct-8-yl]-(4-trifluoromethoxy-phenyl)-methanone] | –
5 | – | – | – | – | 0.1 to 0.5 | < 0.1 | 0.1 to 0.5 | > 0.5 | O=C(Cc1cccnc1)N1CCN(c2ncnc3[nH]ccc23)CC12CC2 [Example 4, 2-Pyridin-3-yl-1-[7-(7H-pyrrolo[2,3-d]pyrimidin-4-yl)-4,7-diazaspiro[2.5]oct-4-yl]ethanone] | –
6 | 0.1 to 0.5 | 0.1 to 0.5 | 0.1 to 0.5 | > 0.5 | – | – | – | – | N#CCC(=O)N1CCN(c2ccnc3[nH]ccc23)CC12CC2 [Example 220, 3-Oxo-3-[7-(1H-pyrrolo[2,3-b]pyridin-4-yl)-4,7-diaza-spiro[2.5]oct-4-yl]-propionitrile] | –
7 | < 0.1 | 0.1 to 0.5 | > 0.5 | > 0.5 | – | – | – | – | N#Cc1ccc(C(=O)N2CCN(c3ccnc4[nH]ccc34)CC23CC3)cc1 [Example 226, 4-[7-(1H-Pyrrolo[2,3-b]pyridin-4-yl)-4,7-diaza-spiro[2.5]octane-4-carbonyl]-benzonitrile] | –
8 | – | – | – | – | < 0.1 | < 0.1 | < 0.1 | < 0.1 | N#Cc1ccc(CC(=O)N2CCN(c3ncnc4[nH]ccc34)CC23CC3)cc1 [Example 35, 4-{2-Oxo-2-[7-(7H-pyrrolo[2,3-d]pyrimidin-4-yl)-4,7-diazaspiro[2.5]oct-4-yl]-ethyl}benzonitrile] | –
9 | – | – | – | – | 0.1 to 0.5 | 0.1 to 0.5 | 0.1 to 0.5 | > 0.5 | CC(=O)N1CCC(C(=O)N2CCN(c3ncnc4[nH]ccc34)CC23CC3)CC1 [Example 43, 1-{4-[7-(7H-Pyrrolo[2,3-d]pyrimidin-4-yl)-4,7-diazaspiro[2.5]octane-4-carbonyl]piperidin-1-yl}ethanone] | –
10 | < 0.1 | < 0.1 | 0.1 to 0.5 | 0.1 to 0.5 | – | – | – | – | Cc1cc(C(=O)N2CCN(c3ncnc4[nH]ccc34)CC23CC3)ccc1S(C)(=O)=O [Example 403, (4-Methanesulfonyl-3-methyl-phenyl)-[7-(7H-pyrrolo[2,3-d]pyrimidin-4-yl)-4,7-diaza-spiro[2.5]oct-4-yl]-methanone] | –
11 | > 0.5 | > 0.5 | > 0.5 | > 0.5 | – | – | – | – | Cc1c[nH]c2ncnc(N3CCN(C(=O)CCCC#N)C4(CC4)C3)c12 [Example 332, 5-[7-(5-Methyl-7H-pyrrolo[2,3-d]pyrimidin-4-yl)-4,7-diaza-spiro[2.5]oct-4-yl]-5-oxo-pentanenitrile] | –
12 | < 0.1 | < 0.1 | < 0.1 | < 0.1 | – | – | – | – | Cc1sc(C(=O)N2CCN(c3ncnc4[nH]ccc34)CC23CC3)cc1S(N)(=O)=O [Example 374, 2-Methyl-5-[7-(7H-pyrrolo[2,3-d]pyrimidin-4-yl)-4,7-diaza-spiro[2.5]octane-4-carbonyl]-thiophene-3-sulfonic acid amide] | –
13 | – | – | – | – | 0.1 to 0.5 | 0.1 to 0.5 | > 0.5 | > 0.5 | O=C(NC1CCCCC1)N1[C@@H]2CC[C@H]1CN(c1ncnc3[nH]ccc13)C2 [Example 46, 3-(7H-Pyrrolo[2,3-d]pyrimidin-4-yl)-3,8-diaza-bicyclo[3.2.1]octane-8-carboxylic acid cyclohexylamide] | –
14 | – | – | – | – | < 0.1 | < 0.1 | 0.1 to 0.5 | 0.1 to 0.5 | N#CCCC(=O)N1[C@@H]2CC[C@@H]1CN(c1ncnc3[nH]ccc13)C2 [Example 182, 4-Oxo-4-[3-(7H-pyrrolo[2,3-d]pyrimidin-4-yl)-3,8-diaza-bicyclo[3.2.1]oct-8-yl]-butyronitrile] | –
15 | – | – | – | – | > 0.5 | > 0.5 | > 0.5 | > 0.5 | N#Cc1ccc(CC(=O)N2CCN(c3nc(NC(=O)c4ccccc4)nc4[nH]ccc34)CC23CC3)cc1 [Example 98, N-(4-{4-[2-(4-Cyano-phenyl)-acetyl]-4,7-diaza-spiro[2.5]oct-7-yl}-7H-pyrrolo[2,3-d]pyrimidin-2-yl)-benzamide] | –
16 | > 0.5 | 0.1 to 0.5 | 0.1 to 0.5 | > 0.5 | – | – | – | – | COc1cnc2[nH]ccc2c1N1CCN(C(=O)c2ccc(C#N)c(F)c2)C2(CC2)C1 [Example 292, 2-Fluoro-4-[7-(5-methoxy-1H-pyrrolo[2,3-b]pyridin-4-yl)-4,7-diaza-spiro[2.5]octane-4-carbonyl]-benzonitrile] | –
17 | – | – | – | – | – | – | – | – | O=C(NC1CCCCC1)N1CCN(c2ncnc3[nH]ccc23)CC12CC2 [Example 436, 7-(7H-Pyrrolo[2,3-d]pyrimidin-4-yl)-4,7-diaza-spiro[2.5]octane-4-carboxylic acid cyclohexylamide] | EC50 ([1]; HTRF assay, read-out: JAK1 kinase inhibitory activity (EC50)): < 0.1 µM; EC50 ([2]; HTRF assay, read-out: JAK2 kinase inhibitory activity (EC50)): < 0.1 µM; EC50 ([3]; HTRF assay, read-out: JAK3 kinase inhibitory activity (EC50)): < 0.1 µM; EC50 ([4]; HTRF assay, read-out: TYK2 kinase inhibitory activity (EC50)): 0.1 to 0.5 µM
18 | < 0.1 | < 0.1 | < 0.1 | 0.1 to 0.5 | – | – | – | – | O=C(c1ccc2cc[nH]c2c1)N1[C@@H]2CC[C@@H]1CN(c1ncnc3[nH]ccc13)C2 [Example 357, (1H-Indol-6-yl)-[3-(7H-pyrrolo[2,3-d]pyrimidin-4-yl)-3,8-diaza-bicyclo[3.2.1]oct-8-yl]-methanone] | –
19 | – | – | – | – | < 0.1 | < 0.1 | < 0.1 | < 0.1 | Cc1ccc(C(=O)N2CCN(c3ncnc4[nH]ccc34)CC23CC3)s1 [Example 91, (5-Methyl-thiophen-2-yl)-[7-(7H-pyrrolo[2,3-d]pyrimidin-4-yl)-4,7-diaza-spiro[2.5]oct-4-yl]-methanone] | –
20 | – | – | – | – | < 0.1 | < 0.1 | < 0.1 | > 0.5 | N#Cc1ccc(CC(=O)N2CCN(c3ccnc4[nH]ccc34)CC23CC3)cc1 [Example 115, 4-{2-Oxo-2-[7-(1H-pyrrolo[2,3-b]pyridin-4-yl)-4,7-diaza-spiro[2.5]oct-4-yl]-ethyl}-benzonitrile] | –
21 | – | – | – | – | < 0.1 | < 0.1 | < 0.1 | > 0.5 | O=C(c1cc2cc(F)cc(F)c2[nH]1)N1C2CCC1CN(c1ncnc3[nH]ccc13)C2 [Example 140, (5,7-Difluoro-1H-indol-2-yl)-[3-(7H-pyrrolo[2,3-d]pyrimidin-4-yl)-3,8-diaza-bicyclo[3.2.1]oct-8-yl]-methanone] | –
22 | – | – | – | – | 0.1 to 0.5 | 0.1 to 0.5 | 0.1 to 0.5 | > 0.5 | O=C1OCCC1NC(=S)N1[C@@H]2CC[C@H]1CN(c1ncnc3[nH]ccc13)C2 (stereo partly shown) [Example 47, 3-(7H-Pyrrolo[2,3-d]pyrimidin-4-yl)-3,8-diaza-bicyclo[3.2.1]octane-8-carbothioic acid (2-oxo-tetrahydro-furan-3-yl)-amide] | –
